Laboratory results taken from US10588952B2, “Conjugate vaccine using trimming function of ERAP1” (SUMITOMO DAINIPPON PHARMA CO., LTD., priority 2013, dated 2020).

Key:
ERAP1 [1] = molecular target: T1, ERAP1 (Homo sapiens, UniProt Q9NZ08); test: Test of trimming of N-terminal amino acid by ERAP1 (Experimental Example 9, Examples 69-84); assay type: biochemical; settings: MAGE-A10 254-262 peptide obtained by ERAP1 trimming; from HPLC AUC;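 note: peptide incubated with ERAP1 for 1 h before HPLC analysis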
T1 sequence (Q9NZ08 whole entry): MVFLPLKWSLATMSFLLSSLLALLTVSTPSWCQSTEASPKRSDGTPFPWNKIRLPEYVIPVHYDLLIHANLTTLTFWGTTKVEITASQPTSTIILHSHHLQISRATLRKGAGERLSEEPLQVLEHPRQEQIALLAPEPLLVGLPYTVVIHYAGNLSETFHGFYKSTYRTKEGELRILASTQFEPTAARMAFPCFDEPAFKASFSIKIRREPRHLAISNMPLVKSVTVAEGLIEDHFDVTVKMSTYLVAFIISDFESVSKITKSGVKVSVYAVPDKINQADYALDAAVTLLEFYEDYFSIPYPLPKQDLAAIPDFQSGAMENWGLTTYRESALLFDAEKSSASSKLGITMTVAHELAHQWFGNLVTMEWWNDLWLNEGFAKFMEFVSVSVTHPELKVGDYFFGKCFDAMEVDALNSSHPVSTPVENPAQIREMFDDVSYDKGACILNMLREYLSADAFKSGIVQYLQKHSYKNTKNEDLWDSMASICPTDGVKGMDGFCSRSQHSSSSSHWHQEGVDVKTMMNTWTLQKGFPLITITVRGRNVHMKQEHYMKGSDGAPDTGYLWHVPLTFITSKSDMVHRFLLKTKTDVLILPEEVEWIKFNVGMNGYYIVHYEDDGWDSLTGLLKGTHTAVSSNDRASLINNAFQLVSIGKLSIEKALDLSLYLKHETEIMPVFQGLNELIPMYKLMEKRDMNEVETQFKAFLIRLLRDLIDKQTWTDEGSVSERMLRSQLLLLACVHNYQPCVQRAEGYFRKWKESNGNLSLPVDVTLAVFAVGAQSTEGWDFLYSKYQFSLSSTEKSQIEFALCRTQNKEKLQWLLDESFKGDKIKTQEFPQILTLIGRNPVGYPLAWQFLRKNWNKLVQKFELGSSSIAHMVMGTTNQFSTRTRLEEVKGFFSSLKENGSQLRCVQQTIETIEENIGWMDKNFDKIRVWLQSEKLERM
Description: The peptides synthesized in Examples 69-84 were evaluated for N-terminal amino acid trimming efficiency using ERAP1. 50 μl of ERAP1 solution (10 μg/ml) in pH 8.0, 20 mM Tris.HCl-100 mM NaCl buffer (Tris.HCl buffer) was added to 142 μl of Tris.HCl buffer. 10 mM peptide solution in DMSO (2.0 μl) and 6.0 μL of DMSO were added to the aforementioned ERAP1 solution, and the mixture was blended well and stood at 30° C. […] The peptide obtained by trimming was chemically synthesized separately, and analyzed under similar conditions in the absence of the enzyme. […]
(§1) pump: UFLC manufactured by Shimadzu […]
(§2) solution: 0.1% TFA H2O(A)-0.1% TFA CH3CN(B) […]
(§3) detection wavelength: λ=220 nm gradient: concentration of SOLUTION B was raised from 10% to 50% from 0.0 min to 8.5 min

ERAP1 [2] = molecular target: T1, ERAP1; test: Test of trimming of N-terminal amino acid by ERAP1 (Experimental Example 10, Examples 85-103); assay type: biochemical; settings: MAGE-A10 254-262 peptide obtained by ERAP1 trimming; from HPLC AUC
Description: The peptides synthesized in Examples 85-103 were evaluated for N-terminal amino acid trimming efficiency using ERAP1. 50 μl of ERAP1 solution (10 μg/ml) in pH 8.0, 20 mM Tris.HCl-100 mM NaCl buffer (Tris.HCl buffer) was added to 142 μl of Tris.HCl buffer. 10 mM peptide solution in DMSO (2.0 μl) and 6.0 μL of DMSO were added to the aforementioned ERAP1 solution, and the mixture was blended well and stood at 30° C. […] The peptide to be obtained by trimming was chemically synthesized separately, and analyzed under similar conditions in the absence of the enzyme. The formation ratio of the peptide [MAGE-A10254-262 peptide ([…]) (SEQ ID NO: 19)] obtained by trimming was determined based on the obtained AUC, and is shown in Tables 45 and 46. […]
as §1, §2, §3

[3] = Measurement of solubility in isotonic buffer (Experimental Examples 7 and 8)
Description: To prepare a test solution, about 1 mg of a test product was measured and the isotonic buffer (0.5 mL) was added thereto. The prepared solution was shaken at room temperature for 90 min (shaking conditions: RECIPRO SHAKER SR-1N manufactured by TAITEC, Speed=8), centrifuged (15000 rpm, 5 min, room temperature), and the supernatant after centrifugation was used as a test solution.
About 1 mg of the test product was accurately measured, dissolved in 0.1% TFA water/acetonitrile=1/1, made the total amount 10 mL, and this was used as a standard solution of the test product.
The standard solution of the test product and the test solution are analyzed by HPLC (under the analysis conditions described in Table 34), and the solubility of the test product is calculated from the ratio of peak area compared to the standard solution.
column: Chemcopack Quicksorb (4.6 mmφ×150 mm, 5 μm)
manufactured by Chemco Scientific Co., Ltd.
mobile phase: SOLUTION A; 0.1% TFA water, SOLUTION B;
0.1% TFA acetonitrile solution
column temperature: room temperature
detection wavelength: UV 254 nm, 230 nm (2 wavelength detection)
sample injection volume: 10

Substance	formation rate of GLYDGMEHL (SEQ ID NO: 19) (ERAP1 [2]) [%]	further results
H-CTGLYDGMEHL-OH [Example 77]	–	formation rate of GLYDGMEHL (SEQ ID NO: 19) (ERAP1 [1]): 89.4%
H-CVGLYDGMEHL-OH [Example 80]	–	formation rate of GLYDGMEHL (SEQ ID NO: 19) (ERAP1 [1]): 0.0%
H-CWGLYDGMEHL-OH [Example 78]	–	formation rate of GLYDGMEHL (SEQ ID NO: 19) (ERAP1 [1]): 0.0%
H-CYGLYDGMEHL-OH [Example 79]	–	formation rate of GLYDGMEHL (SEQ ID NO: 19) (ERAP1 [1]): 0.0%
H-DCGLYDGMEHL-OH [Example 95]	3.2	–
H-ECGLYDGMEHL-OH [Example 96]	2.9	–
H-FCGLYDGMEHL-OH [Example 103]	17.6	–
H-GCGLYDGMEHL-OH [Example 97]	10.4	–
H-GLYDGMEHL-OH [SEQ ID NO: 19]	–	solubility thermodynamic at 90 min ([3]; pH 6): > 1000 µg/mL; solubility thermodynamic at 90 min ([3]; pH 7.4): > 1000 µg/mL
H-HCGLYDGMEHL-OH [Example 98]	0.0	–
H-ICGLYDGMEHL-OH [Example 99]	0.0	–
H-KCGLYDGMEHL-OH [Example 101]	0.0	–
H-LCGLYDGMEHL-OH [Example 100]	0.0	–
H-MCGLYDGMEHL-OH [Example 102]	5.8	–
H-NCGLYDGMEHL-OH [Example 94]	18.2	–
H-PCGLYDGMEHL-OH [Example 86]	19.2	–
H-QCGLYDGMEHL-OH [Example 85]	3.6	–
H-RCGLYDGMEHL-OH [Example 93]	0.0	–
H-SCGLYDGMEHL-OH [Example 87]	22.2	–
H-TCGLYDGMEHL-OH [Example 88]	7.3	–
H-VCGLYDGMEHL-OH [Example 91]	2.4	–
H-VYGFVRACL-OH [SEQ ID NO: 87]	–	solubility thermodynamic at 90 min ([3]; pH 6): > 1000 µg/mL; solubility thermodynamic at 90 min ([3]; pH 7.4): > 1000 µg/mL
H-WCGLYDGMEHL-OH [Example 89]	0.0	–
H-YCGLYDGMEHL-OH [Example 90]	5.7	–
